Reference: ChEMBL document CHEMBL1140238, “Synthesis of selective SRPK-1 inhibitors: novel tricyclic quinoxaline derivatives” (Bioorg Med Chem Lett, 2005)

How the values were obtained:
[1] = target: RAC-alpha serine/threonine-protein kinase (Homo sapiens) (UniProt P31749); experiment: In vitro percent inhibition of Protein kinase B, alpha at 10 uM concentration of compound dissolved in 100% DMSO using 5''-[gamma-33P]-triphosphate
[2] = target: T1, Inhibitor of nuclear factor kappa-B kinase subunit beta (Homo sapiens) (UniProt O14920); experiment: In vitro percent inhibition of I-kappa-B-kinase beta at 10 uM concentration of compound dissolved in 100% DMSO using 5''-[gamma-33P]-triphosphate
T1 sequence (whole entry): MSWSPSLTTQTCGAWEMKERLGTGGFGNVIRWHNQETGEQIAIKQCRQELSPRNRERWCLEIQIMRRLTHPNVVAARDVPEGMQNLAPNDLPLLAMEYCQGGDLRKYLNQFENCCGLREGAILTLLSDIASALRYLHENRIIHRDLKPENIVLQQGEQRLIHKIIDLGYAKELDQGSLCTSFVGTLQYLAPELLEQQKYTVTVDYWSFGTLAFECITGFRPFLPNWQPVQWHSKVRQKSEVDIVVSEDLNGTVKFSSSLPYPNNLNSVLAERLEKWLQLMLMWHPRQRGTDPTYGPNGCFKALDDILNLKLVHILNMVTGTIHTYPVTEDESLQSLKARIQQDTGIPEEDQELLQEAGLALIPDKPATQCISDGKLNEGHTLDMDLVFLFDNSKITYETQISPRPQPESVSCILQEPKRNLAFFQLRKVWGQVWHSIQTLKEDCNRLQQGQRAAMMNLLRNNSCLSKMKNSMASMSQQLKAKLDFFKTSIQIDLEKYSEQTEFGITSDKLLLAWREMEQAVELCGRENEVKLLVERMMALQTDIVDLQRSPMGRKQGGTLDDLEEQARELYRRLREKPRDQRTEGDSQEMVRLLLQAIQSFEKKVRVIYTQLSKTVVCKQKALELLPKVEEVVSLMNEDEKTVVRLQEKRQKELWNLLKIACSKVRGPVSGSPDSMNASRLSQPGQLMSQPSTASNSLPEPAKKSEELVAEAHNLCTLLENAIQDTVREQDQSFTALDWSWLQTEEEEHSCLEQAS

[3] = target: T2, Tyrosine-protein kinase transforming protein Abl (Abelson murine leukemia virus) (UniProt P00521); experiment: In vitro percent inhibition of v-Abl tyrosine kinase at 10 uM concentration of compound dissolved in 100% DMSO using 5''-[gamma-33P]-triphosphate
T2 sequence (whole entry): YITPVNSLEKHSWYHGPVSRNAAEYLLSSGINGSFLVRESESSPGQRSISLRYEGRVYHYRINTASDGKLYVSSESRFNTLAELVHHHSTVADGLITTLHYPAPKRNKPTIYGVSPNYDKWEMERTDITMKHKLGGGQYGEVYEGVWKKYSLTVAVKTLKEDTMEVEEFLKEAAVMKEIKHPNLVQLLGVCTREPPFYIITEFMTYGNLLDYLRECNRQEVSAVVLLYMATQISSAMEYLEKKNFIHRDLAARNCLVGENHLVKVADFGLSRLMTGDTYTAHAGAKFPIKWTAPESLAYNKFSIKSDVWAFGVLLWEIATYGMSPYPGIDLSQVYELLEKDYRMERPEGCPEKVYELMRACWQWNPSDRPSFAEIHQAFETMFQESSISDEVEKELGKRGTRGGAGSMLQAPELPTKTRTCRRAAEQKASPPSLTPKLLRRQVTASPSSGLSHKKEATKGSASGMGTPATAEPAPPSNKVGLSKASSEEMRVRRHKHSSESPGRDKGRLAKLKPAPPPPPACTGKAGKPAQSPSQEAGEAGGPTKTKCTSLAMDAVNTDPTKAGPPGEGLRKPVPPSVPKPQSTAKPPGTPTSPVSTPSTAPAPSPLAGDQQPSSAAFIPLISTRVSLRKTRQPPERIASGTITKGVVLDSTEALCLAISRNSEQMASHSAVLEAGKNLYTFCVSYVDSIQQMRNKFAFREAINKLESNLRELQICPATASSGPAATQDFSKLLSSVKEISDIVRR

[4] = In vitro percent inhibition of Cyclin-dependent kinase 2-cyclin A at 10 uM concentration of compound dissolved in 100% DMSO using 5''-[gamma-33P]-triphosphate
[5] = target: Casein kinase I isoform alpha (Homo sapiens) (UniProt P48729); experiment: In vitro percent inhibition of Casein kinase 1 alpha at 10 uM concentration of compound dissolved in 100% DMSO using 5''-[gamma-33P]-triphosphate
[6] = target: Hepatocyte growth factor receptor (Homo sapiens) (UniProt P08581); experiment: In vitro percent inhibition of Met proto-oncogene tyrosine kinase at 10 uM concentration of compound dissolved in 100% DMSO using 5''-[gamma-33P]-triphosphate
[7] = In vitro percent inhibition of Ribosomal S6 kinase 1 at 10 uM concentration of compound dissolved in 100% DMSO using 5''-[gamma-33P]-triphosphate
[8] = target: Mitogen-activated protein kinase 3 (Homo sapiens) (UniProt P27361); experiment: In vitro percent inhibition of Mitogen-activated protein kinase 3 at 10 uM concentration of compound dissolved in 100% DMSO using 5''-[gamma-33P]-triphosphate
[9] = target: Tyrosine-protein kinase Lck (Homo sapiens) (UniProt P06239); experiment: In vitro percent inhibition of p56 Lck tyrosine kinase at 10 uM concentration of compound dissolved in 100% DMSO using 5''-[gamma-33P]-triphosphate
[10] = target: Epidermal growth factor receptor (Homo sapiens) (UniProt P00533); conditions: 10 uM
[11] = target: Proto-oncogene tyrosine-protein kinase Src (Homo sapiens) (UniProt P12931); experiment: In vitro percent inhibition of c-Src tyrosine kinase at 10 uM concentration of compound dissolved in 100% DMSO using 5''-[gamma-33P]-triphosphate
[12] = target: Rho-associated protein kinase 2 (Homo sapiens) (UniProt O75116); experiment: In vitro percent inhibition of Protein kinase ROCK2 at 10 uM concentration of compound dissolved in 100% DMSO using 5''-[gamma-33P]-triphosphate
[13] = Partition coefficient (logP); format: physicochemical; conditions: octanol/water
[14] = target: RAF proto-oncogene serine/threonine-protein kinase (Homo sapiens) (UniProt P04049); experiment: In vitro percent inhibition of RAF proto-oncogene serine/threonine-protein kinase at 10 uM concentration of compound dissolved in 100% DMSO using 5''-[gamma-33P]-triphosphate
[15] = target: Glycogen synthase kinase-3 beta (Homo sapiens) (UniProt P49841); experiment: In vitro percent inhibition of Glycogen synthase kinase 3 beta at 10 uM concentration of compound dissolved in 100% DMSO using 5''-[gamma-33P]-triphosphate
[16] = target: Platelet-derived growth factor receptor beta (Homo sapiens) (UniProt P09619); experiment: In vitro percent inhibition of Platelet-derived growth factor receptor, beta polypeptide at 10 uM concentration of compound dissolved in 100% DMSO using 5''-[gamma-33P]-triphosphate
[17] = target: Ribosomal protein S6 kinase (P70S6K) (Homo sapiens) (UniProt Q9UBS0+P23443); experiment: In vitro percent inhibition of Ribosomal protein S6 kinase at 10 uM concentration of compound dissolved in 100% DMSO using 5''-[gamma-33P]-triphosphate; format: protein-complex assay
[18] = target: Mast/stem cell growth factor receptor Kit (Homo sapiens) (UniProt P10721); experiment: In vitro percent inhibition of v-kit Hardy-Zuckerman 4 feline sarcoma viral oncogene homolog at 10 uM concentration of compound dissolved in 100% DMSO using 5''-[gamma-33P]-triphosphate
[19] = target: Insulin receptor (Homo sapiens) (UniProt P06213); experiment: In vitro percent inhibition of Insulin receptor at 10 uM concentration of compound dissolved in 100% DMSO using 5''-[gamma-33P]-triphosphate
[20] = target: Mitogen-activated protein kinase 8 (Homo sapiens) (UniProt P45983); experiment: In vitro percent inhibition of c-Jun N-terminal kinase 1-alpha 1 at 10 uM concentration of compound dissolved in 100% DMSO using 5''-[gamma-33P]-triphosphate

Chain of Proto-oncogene tyrosine-protein kinase Src (Homo sapiens) (P12931 2-536 limits assumed): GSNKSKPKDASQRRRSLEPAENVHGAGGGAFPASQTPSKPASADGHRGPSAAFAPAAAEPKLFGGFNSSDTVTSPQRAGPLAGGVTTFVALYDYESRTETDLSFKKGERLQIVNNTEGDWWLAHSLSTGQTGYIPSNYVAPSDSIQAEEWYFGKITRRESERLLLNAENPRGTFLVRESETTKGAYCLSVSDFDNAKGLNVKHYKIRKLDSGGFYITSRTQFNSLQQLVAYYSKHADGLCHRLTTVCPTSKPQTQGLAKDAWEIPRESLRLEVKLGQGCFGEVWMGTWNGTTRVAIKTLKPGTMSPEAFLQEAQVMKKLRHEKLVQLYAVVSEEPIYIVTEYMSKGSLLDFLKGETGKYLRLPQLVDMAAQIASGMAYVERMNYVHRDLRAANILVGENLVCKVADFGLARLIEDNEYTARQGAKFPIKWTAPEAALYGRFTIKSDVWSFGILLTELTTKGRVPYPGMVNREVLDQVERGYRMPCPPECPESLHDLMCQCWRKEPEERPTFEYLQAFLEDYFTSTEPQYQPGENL
Chain of Rho-associated protein kinase 2 (Homo sapiens) (O75116 whole entry, looked up): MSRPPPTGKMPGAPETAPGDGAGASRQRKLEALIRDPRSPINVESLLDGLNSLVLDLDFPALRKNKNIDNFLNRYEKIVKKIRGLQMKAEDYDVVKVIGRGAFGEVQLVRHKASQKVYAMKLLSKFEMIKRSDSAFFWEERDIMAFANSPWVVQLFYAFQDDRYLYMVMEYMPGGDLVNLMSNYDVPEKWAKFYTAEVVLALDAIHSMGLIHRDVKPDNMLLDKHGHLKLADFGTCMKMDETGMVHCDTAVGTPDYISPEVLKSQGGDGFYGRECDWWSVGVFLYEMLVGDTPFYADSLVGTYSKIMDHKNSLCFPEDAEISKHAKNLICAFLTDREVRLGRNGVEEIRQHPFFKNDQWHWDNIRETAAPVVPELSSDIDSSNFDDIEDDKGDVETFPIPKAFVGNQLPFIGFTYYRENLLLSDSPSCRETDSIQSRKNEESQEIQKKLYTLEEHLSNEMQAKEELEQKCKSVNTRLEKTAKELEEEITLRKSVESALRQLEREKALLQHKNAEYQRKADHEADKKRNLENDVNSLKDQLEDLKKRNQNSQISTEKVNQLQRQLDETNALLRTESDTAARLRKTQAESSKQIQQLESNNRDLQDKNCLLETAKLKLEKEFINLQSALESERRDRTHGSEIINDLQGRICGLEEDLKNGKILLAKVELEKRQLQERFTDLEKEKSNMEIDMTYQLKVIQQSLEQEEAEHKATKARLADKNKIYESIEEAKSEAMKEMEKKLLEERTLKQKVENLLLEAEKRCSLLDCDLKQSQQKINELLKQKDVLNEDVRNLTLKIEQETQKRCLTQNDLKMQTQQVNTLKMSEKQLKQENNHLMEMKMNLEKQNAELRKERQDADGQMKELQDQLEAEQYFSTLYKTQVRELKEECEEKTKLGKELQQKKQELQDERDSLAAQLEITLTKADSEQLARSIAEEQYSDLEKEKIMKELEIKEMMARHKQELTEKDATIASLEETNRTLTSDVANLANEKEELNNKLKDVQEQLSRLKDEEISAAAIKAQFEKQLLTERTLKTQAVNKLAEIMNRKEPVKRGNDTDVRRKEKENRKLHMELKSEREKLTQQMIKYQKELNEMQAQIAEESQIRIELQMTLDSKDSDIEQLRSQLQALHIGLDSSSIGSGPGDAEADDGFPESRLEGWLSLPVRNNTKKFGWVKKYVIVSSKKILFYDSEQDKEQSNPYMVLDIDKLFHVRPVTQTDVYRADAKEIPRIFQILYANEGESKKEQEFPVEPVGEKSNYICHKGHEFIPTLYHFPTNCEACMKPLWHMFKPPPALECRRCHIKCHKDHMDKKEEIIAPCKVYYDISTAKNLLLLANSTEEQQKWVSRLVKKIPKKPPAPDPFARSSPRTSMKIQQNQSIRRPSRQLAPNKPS
Chain of Casein kinase I isoform alpha (Homo sapiens) (P48729 2-337 limits assumed): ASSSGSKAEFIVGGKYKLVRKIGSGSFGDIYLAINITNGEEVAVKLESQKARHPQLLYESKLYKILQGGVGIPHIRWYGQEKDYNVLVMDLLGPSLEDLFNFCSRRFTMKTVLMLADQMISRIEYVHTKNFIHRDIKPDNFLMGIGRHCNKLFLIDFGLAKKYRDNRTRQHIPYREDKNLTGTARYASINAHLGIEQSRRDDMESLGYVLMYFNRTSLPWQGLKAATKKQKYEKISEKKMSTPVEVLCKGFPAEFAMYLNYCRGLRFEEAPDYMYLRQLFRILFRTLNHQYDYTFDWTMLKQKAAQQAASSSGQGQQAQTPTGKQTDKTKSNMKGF
Chain of RAC-alpha serine/threonine-protein kinase (Homo sapiens) (P31749 whole entry): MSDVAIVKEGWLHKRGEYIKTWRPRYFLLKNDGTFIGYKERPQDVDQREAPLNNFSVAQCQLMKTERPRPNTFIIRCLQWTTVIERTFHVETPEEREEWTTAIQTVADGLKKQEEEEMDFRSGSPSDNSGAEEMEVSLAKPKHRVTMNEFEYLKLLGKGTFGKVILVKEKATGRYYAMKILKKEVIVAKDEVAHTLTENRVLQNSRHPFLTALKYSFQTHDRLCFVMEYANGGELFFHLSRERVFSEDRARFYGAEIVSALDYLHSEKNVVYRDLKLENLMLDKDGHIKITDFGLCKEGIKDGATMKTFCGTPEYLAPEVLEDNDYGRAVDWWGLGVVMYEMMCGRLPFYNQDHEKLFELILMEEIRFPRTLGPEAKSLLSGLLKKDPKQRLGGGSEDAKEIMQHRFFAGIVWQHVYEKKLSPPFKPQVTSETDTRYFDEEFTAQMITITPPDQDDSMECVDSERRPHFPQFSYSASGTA
Chain of Platelet-derived growth factor receptor beta (Homo sapiens) (P09619 whole entry): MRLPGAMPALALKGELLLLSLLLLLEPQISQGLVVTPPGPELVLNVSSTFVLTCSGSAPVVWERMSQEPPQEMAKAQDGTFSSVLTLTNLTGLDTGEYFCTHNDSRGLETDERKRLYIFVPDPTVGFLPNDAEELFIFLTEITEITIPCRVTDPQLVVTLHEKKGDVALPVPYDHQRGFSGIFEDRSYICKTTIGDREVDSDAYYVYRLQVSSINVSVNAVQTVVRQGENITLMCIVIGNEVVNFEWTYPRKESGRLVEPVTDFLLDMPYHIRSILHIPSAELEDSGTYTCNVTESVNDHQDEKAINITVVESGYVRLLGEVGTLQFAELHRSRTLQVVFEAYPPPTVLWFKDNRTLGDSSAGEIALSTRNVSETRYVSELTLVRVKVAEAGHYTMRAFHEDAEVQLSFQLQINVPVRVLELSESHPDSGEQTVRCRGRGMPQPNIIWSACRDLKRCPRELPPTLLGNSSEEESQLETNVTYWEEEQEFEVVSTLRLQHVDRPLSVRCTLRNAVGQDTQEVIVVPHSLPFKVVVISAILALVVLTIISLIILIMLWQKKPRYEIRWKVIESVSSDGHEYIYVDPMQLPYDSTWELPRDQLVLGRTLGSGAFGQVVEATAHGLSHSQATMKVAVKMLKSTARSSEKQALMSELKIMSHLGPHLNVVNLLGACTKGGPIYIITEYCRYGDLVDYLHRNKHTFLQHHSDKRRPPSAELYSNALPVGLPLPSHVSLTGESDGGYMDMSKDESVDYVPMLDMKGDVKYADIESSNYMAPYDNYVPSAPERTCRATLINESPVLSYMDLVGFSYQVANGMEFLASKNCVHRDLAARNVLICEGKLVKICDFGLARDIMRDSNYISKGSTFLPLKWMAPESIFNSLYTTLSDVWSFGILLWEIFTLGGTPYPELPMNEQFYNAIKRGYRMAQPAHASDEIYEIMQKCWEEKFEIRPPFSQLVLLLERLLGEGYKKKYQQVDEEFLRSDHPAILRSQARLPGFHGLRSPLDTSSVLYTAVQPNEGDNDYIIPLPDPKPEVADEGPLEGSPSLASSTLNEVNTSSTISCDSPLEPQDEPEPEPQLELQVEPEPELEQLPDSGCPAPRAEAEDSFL
Chain of Mitogen-activated protein kinase 3 (Homo sapiens) (P27361 whole entry): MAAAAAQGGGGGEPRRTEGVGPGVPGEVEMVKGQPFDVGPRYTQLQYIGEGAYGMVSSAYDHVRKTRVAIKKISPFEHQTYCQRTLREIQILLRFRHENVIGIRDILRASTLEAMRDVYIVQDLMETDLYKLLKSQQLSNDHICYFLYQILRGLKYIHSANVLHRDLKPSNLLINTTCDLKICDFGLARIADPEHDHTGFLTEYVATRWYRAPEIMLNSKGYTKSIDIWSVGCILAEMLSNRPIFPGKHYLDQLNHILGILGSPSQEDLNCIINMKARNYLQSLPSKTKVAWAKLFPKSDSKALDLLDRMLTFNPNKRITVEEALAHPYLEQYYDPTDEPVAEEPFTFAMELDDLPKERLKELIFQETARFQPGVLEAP
Chain of RAF proto-oncogene serine/threonine-protein kinase (Homo sapiens) (P04049 whole entry): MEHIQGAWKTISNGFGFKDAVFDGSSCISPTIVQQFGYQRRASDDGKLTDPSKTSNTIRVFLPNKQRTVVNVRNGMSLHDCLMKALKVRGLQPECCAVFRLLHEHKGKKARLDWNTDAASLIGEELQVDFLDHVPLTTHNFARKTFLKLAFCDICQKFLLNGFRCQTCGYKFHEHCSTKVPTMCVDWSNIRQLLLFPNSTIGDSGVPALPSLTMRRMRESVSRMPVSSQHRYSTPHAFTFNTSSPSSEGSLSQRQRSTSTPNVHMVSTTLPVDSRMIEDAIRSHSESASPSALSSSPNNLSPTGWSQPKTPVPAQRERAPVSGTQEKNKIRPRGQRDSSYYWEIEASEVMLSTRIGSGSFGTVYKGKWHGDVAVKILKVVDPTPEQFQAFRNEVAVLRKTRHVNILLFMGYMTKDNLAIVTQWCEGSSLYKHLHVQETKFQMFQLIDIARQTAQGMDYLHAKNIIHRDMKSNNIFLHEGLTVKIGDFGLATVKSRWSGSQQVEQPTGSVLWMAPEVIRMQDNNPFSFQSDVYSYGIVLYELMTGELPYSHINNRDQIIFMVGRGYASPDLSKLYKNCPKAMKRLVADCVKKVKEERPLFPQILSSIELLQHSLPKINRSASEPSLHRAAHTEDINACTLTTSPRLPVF

SMILES	inhibition [1]	inhibition [2]	inhibition [3]	inhibition [4]	inhibition [5]	inhibition [6]	inhibition [7]	inhibition [8]	inhibition [9]	inhibition [10]	inhibition [11]	inhibition [12]	logP [13]	inhibition [14]	inhibition [15]	inhibition [16]	inhibition [17]	inhibition [18]	inhibition [19]	inhibition [20]
O=C(O)Cc1csc(-c2nc3cc4ccccc4cc3nc2-c2cc(CC(=O)O)cs2)c1	17%	37%	-7%	-5%	18%	21%	27%	54%	8%	54%	29%	18%	4.11	40%	22%	22%	10%	17%	–	–
COc1cc2nc3nc(-c4cccs4)c(-c4cccs4)nc3nc2cc1OC	-4%	10%	-1%	27%	2%	12%	48%	20%	-7%	20%	9%	-1%	4.79	8%	4%	5%	-2%	-4%	-7%	–
c1ccc2[nH]cnc2c1 [BENZIMIDAZOLE]	–	–	–	–	–	–	–	–	–	–	–	–	1.55	–	–	–	–	–	–	–
COC(=O)Cc1csc(-c2nc3cc4ccccc4cc3nc2-c2cc(CC(=O)OC)cs2)c1	1%	14%	-10%	-4%	3%	-2%	13%	11%	4%	11%	8%	4%	5	17%	2%	9%	-5%	1%	–	-10%
CCCC(=O)c1ccccc1 [BUTYROPHENONE]	–	–	–	–	–	–	–	–	–	–	–	–	2.73	–	–	–	–	–	–	–
COc1cc2nc(-c3cccs3)c(-c3cccs3)nc2cc1OC	-6%	10%	-2%	-5%	-1%	-3%	15%	10%	9%	10%	10%	2%	4	11%	–	7%	-9%	-6%	-7%	–
c1ccc(-c2nnn[nH]2)cc1	–	–	–	–	–	–	–	–	–	–	–	–	1.42	–	–	–	–	–	–	–
Cn1c(=O)c2[nH]c(-c3ccccc3)nc2n(C)c1=O [8-PHENYL THEOPHYLLINE]	–	–	–	–	–	–	–	–	–	–	–	–	2.05	–	–	–	–	–	–	–
COC(=O)Cc1ccc(-c2nc3cc4ccccc4cc3nc2-c2ccc(CC(=O)OC)s2)s1	–	–	–	–	–	–	–	–	–	–	–	–	4.95	–	–	–	–	–	–	–
